Test results as given in patent publication EP4722207A1, “OXOISOINDOLINYL-SUBSTITUTED TETRAHYDROPYRIMIDINEDIONE DERIVATIVE AND USE THEREOF” (Gluetacs Therapeutics (Shanghai) Co., Ltd., priority 2023, dated 2024).

Legend:
Format in all cases: cell-based
Details in all cases: compounds at 50 nM and 500 nM, 24 hours
WEE1 = target: T1, WEE1 (Homo sapiens, UniProt P30291+Q96SW2); assay: Western-blot assay, substrate protein degradation in hPBMCs: WEE1
T1 construct: effects of the compounds of the present disclosure on the expression of target proteins in cells; endogenous in cells; host or cells: human PBMCs (hPBMCs)
T1 sequence (P30291 whole entry): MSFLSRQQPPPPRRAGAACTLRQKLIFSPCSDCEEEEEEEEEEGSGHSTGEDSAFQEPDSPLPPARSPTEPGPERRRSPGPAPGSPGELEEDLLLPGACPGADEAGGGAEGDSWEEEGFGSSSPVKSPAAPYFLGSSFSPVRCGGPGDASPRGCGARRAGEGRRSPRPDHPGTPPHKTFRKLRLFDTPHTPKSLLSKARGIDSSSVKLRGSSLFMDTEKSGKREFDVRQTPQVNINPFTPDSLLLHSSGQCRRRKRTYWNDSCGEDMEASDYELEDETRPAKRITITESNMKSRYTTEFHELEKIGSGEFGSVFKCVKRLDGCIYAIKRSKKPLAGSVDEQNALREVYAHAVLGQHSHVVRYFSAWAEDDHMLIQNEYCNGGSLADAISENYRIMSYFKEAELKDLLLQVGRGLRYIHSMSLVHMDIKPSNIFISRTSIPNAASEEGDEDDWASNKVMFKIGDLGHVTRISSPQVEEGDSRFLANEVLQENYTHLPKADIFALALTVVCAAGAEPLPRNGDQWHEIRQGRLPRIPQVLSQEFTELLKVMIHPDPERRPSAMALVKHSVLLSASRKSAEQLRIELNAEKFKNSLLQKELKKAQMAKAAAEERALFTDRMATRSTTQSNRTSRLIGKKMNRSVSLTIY
T1 sequence (Q96SW2 whole entry): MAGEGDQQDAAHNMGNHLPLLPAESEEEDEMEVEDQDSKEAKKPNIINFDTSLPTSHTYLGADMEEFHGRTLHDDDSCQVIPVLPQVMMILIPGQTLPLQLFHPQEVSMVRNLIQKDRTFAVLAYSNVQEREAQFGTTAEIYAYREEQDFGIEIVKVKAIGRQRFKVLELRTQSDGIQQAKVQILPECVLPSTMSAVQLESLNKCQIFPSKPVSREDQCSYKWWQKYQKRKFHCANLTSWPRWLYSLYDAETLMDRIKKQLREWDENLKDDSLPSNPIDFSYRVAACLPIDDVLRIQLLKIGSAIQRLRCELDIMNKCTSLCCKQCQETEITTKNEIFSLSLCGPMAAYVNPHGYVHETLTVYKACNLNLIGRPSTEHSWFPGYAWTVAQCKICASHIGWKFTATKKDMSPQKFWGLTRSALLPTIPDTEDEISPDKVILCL
T1 sequence (Q16531 whole entry partner): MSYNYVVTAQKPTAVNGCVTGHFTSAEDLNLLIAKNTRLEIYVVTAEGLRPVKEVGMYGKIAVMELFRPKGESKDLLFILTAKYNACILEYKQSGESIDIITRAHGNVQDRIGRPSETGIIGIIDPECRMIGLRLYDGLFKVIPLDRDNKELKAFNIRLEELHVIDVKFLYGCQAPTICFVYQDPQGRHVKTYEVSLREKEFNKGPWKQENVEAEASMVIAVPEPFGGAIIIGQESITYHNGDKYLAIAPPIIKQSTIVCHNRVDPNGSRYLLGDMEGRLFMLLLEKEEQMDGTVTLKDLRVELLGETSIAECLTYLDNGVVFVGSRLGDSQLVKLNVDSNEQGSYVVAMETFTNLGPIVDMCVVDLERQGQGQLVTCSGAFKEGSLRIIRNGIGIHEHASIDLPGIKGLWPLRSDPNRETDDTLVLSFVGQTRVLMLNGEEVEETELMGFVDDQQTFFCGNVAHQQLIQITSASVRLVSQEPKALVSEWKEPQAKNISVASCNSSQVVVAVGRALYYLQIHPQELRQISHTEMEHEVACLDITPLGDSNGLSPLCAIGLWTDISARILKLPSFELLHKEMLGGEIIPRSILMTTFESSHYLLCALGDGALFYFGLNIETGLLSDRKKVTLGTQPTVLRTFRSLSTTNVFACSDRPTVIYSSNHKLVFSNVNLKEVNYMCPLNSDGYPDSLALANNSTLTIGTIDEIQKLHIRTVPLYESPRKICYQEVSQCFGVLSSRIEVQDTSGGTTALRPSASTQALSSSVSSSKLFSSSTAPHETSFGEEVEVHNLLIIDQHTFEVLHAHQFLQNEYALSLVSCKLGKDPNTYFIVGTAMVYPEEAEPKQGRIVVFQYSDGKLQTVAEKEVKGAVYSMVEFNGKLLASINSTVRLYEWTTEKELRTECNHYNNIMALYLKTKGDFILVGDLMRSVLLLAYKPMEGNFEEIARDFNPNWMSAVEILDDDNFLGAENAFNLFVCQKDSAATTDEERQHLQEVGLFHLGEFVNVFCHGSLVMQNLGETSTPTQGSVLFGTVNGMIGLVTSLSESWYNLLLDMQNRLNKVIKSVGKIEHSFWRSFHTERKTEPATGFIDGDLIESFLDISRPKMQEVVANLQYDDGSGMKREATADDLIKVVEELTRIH

IKZF1 = target: T2, IKZF1 (Homo sapiens, UniProt Q13422+Q96SW2); assay: Western-blot assay, substrate protein degradation in hPBMCs: IKZF1
T2 construct: effects of the compounds of the present disclosure on the expression of target proteins in cells; endogenous in cells; host or cells: human PBMCs (hPBMCs)
T2 sequence (Q13422 whole entry): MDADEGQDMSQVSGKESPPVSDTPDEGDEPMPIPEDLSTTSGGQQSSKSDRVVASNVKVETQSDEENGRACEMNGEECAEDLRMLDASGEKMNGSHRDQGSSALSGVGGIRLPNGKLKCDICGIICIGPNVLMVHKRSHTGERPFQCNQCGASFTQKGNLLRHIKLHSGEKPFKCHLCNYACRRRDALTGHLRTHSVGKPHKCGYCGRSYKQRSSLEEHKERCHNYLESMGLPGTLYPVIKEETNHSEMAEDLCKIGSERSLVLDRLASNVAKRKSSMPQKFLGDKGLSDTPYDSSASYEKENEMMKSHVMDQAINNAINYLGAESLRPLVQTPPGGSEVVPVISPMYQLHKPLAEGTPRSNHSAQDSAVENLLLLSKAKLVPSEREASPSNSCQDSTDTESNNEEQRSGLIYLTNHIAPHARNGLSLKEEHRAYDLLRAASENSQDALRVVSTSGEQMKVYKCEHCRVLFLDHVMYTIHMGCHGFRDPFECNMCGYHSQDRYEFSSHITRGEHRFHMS
T2 sequence (Q96SW2 whole entry): as the sequence (Q96SW2 whole entry) above
T2 sequence (Q16531 whole entry partner): as the sequence (Q16531 whole entry partner) above

IKZF2 = target: T3, IKZF2 (Homo sapiens, UniProt Q96SW2+Q9UKS7); assay: Western-blot assay, substrate protein degradation in hPBMCs: IKZF2
T3 construct: effects of the compounds of the present disclosure on the expression of target proteins in cells; endogenous in cells; host or cells: human PBMCs (hPBMCs)
T3 sequence (Q9UKS7 whole entry): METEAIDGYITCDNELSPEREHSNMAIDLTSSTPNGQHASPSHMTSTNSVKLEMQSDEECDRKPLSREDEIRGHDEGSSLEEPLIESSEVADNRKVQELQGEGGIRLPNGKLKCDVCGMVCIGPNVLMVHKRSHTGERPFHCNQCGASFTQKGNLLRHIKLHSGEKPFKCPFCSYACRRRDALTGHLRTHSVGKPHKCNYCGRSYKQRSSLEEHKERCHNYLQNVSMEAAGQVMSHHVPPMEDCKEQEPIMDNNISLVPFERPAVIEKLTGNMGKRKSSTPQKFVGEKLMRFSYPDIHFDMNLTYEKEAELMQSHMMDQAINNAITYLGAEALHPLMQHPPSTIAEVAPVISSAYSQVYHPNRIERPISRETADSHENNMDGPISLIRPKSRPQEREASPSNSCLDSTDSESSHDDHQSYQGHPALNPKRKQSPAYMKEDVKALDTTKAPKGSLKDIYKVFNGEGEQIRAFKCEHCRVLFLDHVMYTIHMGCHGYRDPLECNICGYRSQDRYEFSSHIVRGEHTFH
T3 sequence (Q96SW2 whole entry): as the sequence (Q96SW2 whole entry) above
T3 sequence (Q16531 whole entry partner): as the sequence (Q16531 whole entry partner) above

IKZF3 = target: T4, IKZF3 (Homo sapiens, UniProt Q96SW2+Q9UKT9); assay: Western-blot assay, substrate protein degradation in hPBMCs: IKZF3
T4 construct: effects of the compounds of the present disclosure on the expression of target proteins in cells; endogenous in cells; host or cells: human PBMCs (hPBMCs)

CK1α = target: T5, CK1α (Homo sapiens, UniProt P48729+Q96SW2); assay: Western-blot assay, substrate protein degradation in hPBMCs: CK1α
T5 construct: effects of the compounds of the present disclosure on the expression of target proteins in cells; endogenous in cells; host or cells: human PBMCs (hPBMCs)
T5 sequence (P48729 whole entry): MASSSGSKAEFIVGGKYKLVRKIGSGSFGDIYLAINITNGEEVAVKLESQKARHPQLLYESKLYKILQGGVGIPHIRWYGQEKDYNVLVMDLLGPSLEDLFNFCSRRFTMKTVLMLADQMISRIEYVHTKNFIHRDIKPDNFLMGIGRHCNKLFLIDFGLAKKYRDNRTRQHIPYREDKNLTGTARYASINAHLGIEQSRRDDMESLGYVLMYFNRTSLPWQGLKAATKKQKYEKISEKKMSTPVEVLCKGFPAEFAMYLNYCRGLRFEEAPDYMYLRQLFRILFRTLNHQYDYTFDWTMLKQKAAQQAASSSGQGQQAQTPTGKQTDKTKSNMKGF
T5 sequence (Q96SW2 whole entry): as the sequence (Q96SW2 whole entry) above
T5 sequence (Q16531 whole entry partner): as the sequence (Q16531 whole entry partner) above

GSPT1 = target: T6, GSPT1 (Homo sapiens, UniProt P15170+Q96SW2); assay: Western-blot assay, substrate protein degradation in hPBMCs: GSPT1
T6 construct: effects of the compounds of the present disclosure on the expression of target proteins in cells; endogenous in cells; host or cells: human PBMCs (hPBMCs)
T6 sequence (P15170 whole entry): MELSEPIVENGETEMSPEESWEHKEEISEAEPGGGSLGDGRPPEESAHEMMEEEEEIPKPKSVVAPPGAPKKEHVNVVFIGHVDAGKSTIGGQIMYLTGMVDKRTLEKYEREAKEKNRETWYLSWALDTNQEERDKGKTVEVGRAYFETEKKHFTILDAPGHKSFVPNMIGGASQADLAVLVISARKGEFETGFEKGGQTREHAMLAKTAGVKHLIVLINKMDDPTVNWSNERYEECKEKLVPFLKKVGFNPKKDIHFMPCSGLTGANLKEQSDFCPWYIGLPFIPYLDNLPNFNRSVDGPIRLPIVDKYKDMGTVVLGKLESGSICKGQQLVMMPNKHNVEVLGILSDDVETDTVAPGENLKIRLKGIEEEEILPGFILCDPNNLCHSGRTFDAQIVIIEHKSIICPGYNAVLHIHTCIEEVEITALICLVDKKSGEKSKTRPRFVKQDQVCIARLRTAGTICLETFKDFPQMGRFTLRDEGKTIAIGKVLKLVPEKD
T6 sequence (Q96SW2 whole entry): as the sequence (Q96SW2 whole entry) above
T6 sequence (Q16531 whole entry partner): as the sequence (Q16531 whole entry partner) above

SMILES | WEE1 substrate protein remaining % (WEE1) | IKZF1 substrate protein remaining % (IKZF1) | IKZF2 substrate protein remaining % (IKZF2) | IKZF3 substrate protein remaining % (IKZF3) | CK1α substrate protein remaining % (CK1α) | GSPT1 substrate protein remaining % (GSPT1)
COc1ccccc1N1CCN(Cc2ccc3c(c2)C(=O)N(N2CCC(=O)NC2=O)C3=O)CC1 [GT-06720, 2-(2,4-dioxotetrahydropyrimidin-1(2H)-yl)-5-((4-(2-methoxyphenyl)piperazin-1-yl)methyl)isoindoline-1,3-dione] | B ("B" is defined as 80%< substrate protein remaining %≤ 100%) | B ("B" is defined as 80%< substrate protein remaining %≤ 100%) | B ("B" is defined as 80%< substrate protein remaining %≤ 100%) | A ("A" is defined as 0% ≤ substrate protein remaining % ≤ 80%) | B ("B" is defined as 80%< substrate protein remaining %≤ 100%) | B ("B" is defined as 80%< substrate protein remaining %≤ 100%)
COc1cccc(N2CCN(Cc3ccc4c(c3)C(=O)N(N3CCC(=O)NC3=O)C4=O)CC2)c1 [GT-06721, 2-(2,4-dioxotetrahydropyrimidin-1(2H)-yl)-5-((4-(3-methoxyphenyl)piperazin-1-yl)methyl)isoindoline-1,3-dione] | B ("B" is defined as 80%< substrate protein remaining %≤ 100%) | A ("A" is defined as 0% ≤ substrate protein remaining % ≤ 80%) | A ("A" is defined as 0% ≤ substrate protein remaining % ≤ 80%) | A ("A" is defined as 0% ≤ substrate protein remaining % ≤ 80%) | B ("B" is defined as 80%< substrate protein remaining %≤ 100%) | B ("B" is defined as 80%< substrate protein remaining %≤ 100%)
O=C1CCN(N2C(=O)c3ccc(CN4CCN(c5cccc(Br)c5)CC4)cc3C2=O)C(=O)N1 [GT-06722, 5-((4-(3-bromophenyl)piperazin-1-yl)methyl)-2-(2,4-dioxotetrahydropyrimidin-1(2H)-yl)isoindoline-1,3-dione] | A ("A" is defined as 0% ≤ substrate protein remaining % ≤ 80%) | A ("A" is defined as 0% ≤ substrate protein remaining % ≤ 80%) | B ("B" is defined as 80%< substrate protein remaining %≤ 100%) | A ("A" is defined as 0% ≤ substrate protein remaining % ≤ 80%) | A ("A" is defined as 0% ≤ substrate protein remaining % ≤ 80%) | B ("B" is defined as 80%< substrate protein remaining %≤ 100%)
O=C1CCN(N2C(=O)c3ccc(CN4CCN(c5cccc(F)c5)CC4)cc3C2=O)C(=O)N1 [GT-06724, 2-(2,4-dioxotetrahydropyrimidin-1(2H)-yl)-5-((4-(3-fluorophenyl)piperazin-1-yl)methyl)isoindoline-1,3-dione] | A ("A" is defined as 0% ≤ substrate protein remaining % ≤ 80%) | A ("A" is defined as 0% ≤ substrate protein remaining % ≤ 80%) | B ("B" is defined as 80%< substrate protein remaining %≤ 100%) | B ("B" is defined as 80%< substrate protein remaining %≤ 100%) | B ("B" is defined as 80%< substrate protein remaining %≤ 100%) | B ("B" is defined as 80%< substrate protein remaining %≤ 100%)
O=C1CCN(N2C(=O)c3ccc(CN4CCN(c5ccc(F)cc5)CC4)cc3C2=O)C(=O)N1 [GT-06725, 2-(2,4-dioxotetrahydropyrimidin-1(2H)-yl)-5-((4-(4-fluorophenyl)piperazin-1-yl)methyl)isoindoline-1,3-dione] | B ("B" is defined as 80%< substrate protein remaining %≤ 100%) | A ("A" is defined as 0% ≤ substrate protein remaining % ≤ 80%) | B ("B" is defined as 80%< substrate protein remaining %≤ 100%) | B ("B" is defined as 80%< substrate protein remaining %≤ 100%) | B ("B" is defined as 80%< substrate protein remaining %≤ 100%) | B ("B" is defined as 80%< substrate protein remaining %≤ 100%)
O=C1CCN(N2C(=O)c3ccc(CN4CCN(c5ccccc5Cl)CC4)cc3C2=O)C(=O)N1 [GT-06726, 5-((4-(2-chlorophenyl)piperazin-1-yl)methyl)-2-(2,4-dioxotetrahydropyrimidin-1(2H)-yl)isoindoline-1,3-dione] | A ("A" is defined as 0% ≤ substrate protein remaining % ≤ 80%) | B ("B" is defined as 80%< substrate protein remaining %≤ 100%) | A ("A" is defined as 0% ≤ substrate protein remaining % ≤ 80%) | A ("A" is defined as 0% ≤ substrate protein remaining % ≤ 80%) | A ("A" is defined as 0% ≤ substrate protein remaining % ≤ 80%) | B ("B" is defined as 80%< substrate protein remaining %≤ 100%)
O=C1CCN(N2C(=O)c3ccc(CN4CCN(c5ccccc5Br)CC4)cc3C2=O)C(=O)N1 [GT-06727, 5-((4-(2-bromophenyl)piperazin-1-yl)methyl)-2-(2,4-dioxotetrahydropyrimidin-1(2H)-yl)isoindoline-1,3-dione] | B ("B" is defined as 80%< substrate protein remaining %≤ 100%) | B ("B" is defined as 80%< substrate protein remaining %≤ 100%) | A ("A" is defined as 0% ≤ substrate protein remaining % ≤ 80%) | A ("A" is defined as 0% ≤ substrate protein remaining % ≤ 80%) | A ("A" is defined as 0% ≤ substrate protein remaining % ≤ 80%) | B ("B" is defined as 80%< substrate protein remaining %≤ 100%)
COc1ccc(N2CCN(Cc3ccc4c(c3)C(=O)N(N3CCC(=O)NC3=O)C4=O)CC2)cc1 [GT-06728, 2-(2,4-dioxotetrahydropyrimidin-1(2H)-yl)-5-((4-(4-methoxyphenyl)piperazin-1-yl)methyl)isoindoline-1,3-dione] | B ("B" is defined as 80%< substrate protein remaining %≤ 100%) | B ("B" is defined as 80%< substrate protein remaining %≤ 100%) | A ("A" is defined as 0% ≤ substrate protein remaining % ≤ 80%) | A ("A" is defined as 0% ≤ substrate protein remaining % ≤ 80%) | A ("A" is defined as 0% ≤ substrate protein remaining % ≤ 80%) | B ("B" is defined as 80%< substrate protein remaining %≤ 100%)
COc1ccc(N2CCN(Cc3ccc4c(c3)CN(N3CCC(=O)NC3=O)C4=O)CC2)cc1 [GT-06767, 1-(5-((4-(4-methoxyphenyl)piperazin-1-yl)methyl)-1-oxoisoindolin-2-yl)dihydropyrimidine-2,4(1H,3H)-dione] | A ("A" is defined as 0% ≤ substrate protein remaining % ≤ 80%) | A ("A" is defined as 0% ≤ substrate protein remaining % ≤ 80%) | A ("A" is defined as 0% ≤ substrate protein remaining % ≤ 80%) | A ("A" is defined as 0% ≤ substrate protein remaining % ≤ 80%) | A ("A" is defined as 0% ≤ substrate protein remaining % ≤ 80%) | A ("A" is defined as 0% ≤ substrate protein remaining % ≤ 80%)
O=C1CCN(N2Cc3cc(CN4CCN(c5ccc(Br)cc5)CC4)ccc3C2=O)C(=O)N1 [GT-06768, 1-(5-((4-(4-bromophenyl)piperazin-1-yl)methyl)-1-oxoisoindolin-2-yl)dihydropyrimidine-2,4(1H,3H)-dione] | A ("A" is defined as 0% ≤ substrate protein remaining % ≤ 80%) | B ("B" is defined as 80%< substrate protein remaining %≤ 100%) | B ("B" is defined as 80%< substrate protein remaining %≤ 100%) | A ("A" is defined as 0% ≤ substrate protein remaining % ≤ 80%) | A ("A" is defined as 0% ≤ substrate protein remaining % ≤ 80%) | A ("A" is defined as 0% ≤ substrate protein remaining % ≤ 80%)
Cc1ccccc1N1CCN(Cc2ccc3c(c2)CN(N2CCC(=O)NC2=O)C3=O)CC1 [GT-06769, 1-(1-oxo-5-((4-(o-tolyl)piperazin-1-yl)methyl)isoindolin-2-yl)dihydropyrimidine-2,4(1H,3H)-dione] | A ("A" is defined as 0% ≤ substrate protein remaining % ≤ 80%) | B ("B" is defined as 80%< substrate protein remaining %≤ 100%) | A ("A" is defined as 0% ≤ substrate protein remaining % ≤ 80%) | A ("A" is defined as 0% ≤ substrate protein remaining % ≤ 80%) | A ("A" is defined as 0% ≤ substrate protein remaining % ≤ 80%) | A ("A" is defined as 0% ≤ substrate protein remaining % ≤ 80%)
Cc1ccc(N2CCN(Cc3ccc4c(c3)CN(N3CCC(=O)NC3=O)C4=O)CC2)cc1 [GT-06771, 1-(1-oxo-5-((4-(p-tolyl)piperazin-1-yl)methyl)isoindolin-2-yl)dihydropyrimidine-2,4(1H,3H)-dione] | A ("A" is defined as 0% ≤ substrate protein remaining % ≤ 80%) | B ("B" is defined as 80%< substrate protein remaining %≤ 100%) | A ("A" is defined as 0% ≤ substrate protein remaining % ≤ 80%) | A ("A" is defined as 0% ≤ substrate protein remaining % ≤ 80%) | A ("A" is defined as 0% ≤ substrate protein remaining % ≤ 80%) | A ("A" is defined as 0% ≤ substrate protein remaining % ≤ 80%)
